Reference: publication PMC9157191, “The ex vivo pharmacology of HIV-1 antiretrovirals differs between macaques and humans” (iScience, 2022)

Tests used:
[1] = Drug concentrations in Rhesus macaque ecto-cervical tissue explants (LC-MS/MS); format: in vitro ADME, Rhesus macaque (Macaca mulatta); conditions: Rh. macaque ecto-cervical explants, 3 h exposure; for Cmax: monkey, ecto-cervical tissue explants
HIV-1BaL [2] = experiment: microbe, parasite or virus in culture; format: cell-based; conditions: Human cervical explants
SIVmac32H [3] = experiment: microbe, parasite or virus in culture; format: cell-based; conditions: for p27 AUC3-15: Rhesus macaque cervical explants
HIV-1/SIV/SHIV isolates = format: cell-based
HIV-1YU.2 = experiment: microbe, parasite or virus in culture; format: cell-based; conditions: Human colorectal explants
HIV-1YU.2 M184V = experiment: microbe, parasite or virus in culture; format: cell-based; conditions: Human colorectal explants
SIVmac32H K65RM184V [4] = experiment: microbe, parasite or virus in culture; format: cell-based; conditions: for p27 AUC3-15: Rhesus macaque vaginal explants
HIV-1BaL [5] = experiment: microbe, parasite or virus in culture; format: cell-based; conditions: Human colorectal explants
HIV-1YU.2 K65RM184V = experiment: microbe, parasite or virus in culture; format: cell-based; conditions: Human colorectal explants;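 on p24 AUC3-15: high arm above the IC50 and low arm below the IC50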
SIVmac32H [6] = experiment: microbe, parasite or virus in culture; format: cell-based; conditions: for p27 AUC3-15: Rhesus macaque colorectal explants
SIVmac32H K65RM184V [7] = experiment: microbe, parasite or virus in culture; format: cell-based; conditions: for p27 AUC3-15: Rhesus macaque colorectal explants
SIVmac32H [8] = experiment: microbe, parasite or virus in culture; format: cell-based; conditions: for p27 AUC3-15: Rhesus macaque vaginal explants
[9] = Drug concentrations in Rhesus macaque colorectal tissue explants (LC-MS/MS); format: in vitro ADME, Rhesus macaque (Macaca mulatta); conditions: for AUC3h–15d / Cmax: Rh. macaque colorectal explants, 3 h exposure; for Cmax: monkey, colorectal tissue explants, read-out: Cmax
[10] = Single gel, High [ ]: TFV 70 µM or MVC […]
[11] = Single gel, Low [ ]: TFV 7 µM or MVC […]
[12] = Comb. gel, High [ ]: TFV 70 µM + MVC […]
[13] = Comb. gel, Low [ ]: TFV 7 µM + MVC […]
[14] = high concentration: TFV 70 µM, MVC […], or TFV 70 µM + MVC […]
[15] = low concentration: TFV 7 µM, MVC […], or TFV 7 µM + MVC […]
[16] = Human immunodeficiency virus 1, 360 h, day 15
[17] = Simian immunodeficiency virus, in Macaca mulatta, 360 h, NHP vaginal explants, day 15
[18] = Simian immunodeficiency virus, in Macaca mulatta, 360 h, NHP colorectal explants, day 15

C[C@H](Cn1cnc2c(N)ncnc21)OCP(=O)(O)O [TFV, Tenofovir]
AUC3h–15d [1, 10]: 9.55 ng·days/mg | AUC3h–15d [1, 11]: 4.99 ng·days/mg | Cmax [1, 12]: 2460 ng/g | Cmax [1, 13]: 1860 ng/g | Cmax [1, 10]: 1250 ng/g | Cmax [1, 11]: 660 ng/g | p24 AUC3-15 (HIV-1BaL [2]; [14]): 1.13 ± 0.10 µgxd/ml | p24 AUC3-15 (HIV-1BaL [2]; [15]): 2.55 ± 1.47 µgxd/ml | IC50 (HIV-1BaL [2]; [16]): 41.4 ± 0.57 µM | p27 AUC3-15 (SIVmac32H [3]; [14]): 1.25 ± 0.36 µgxd/ml | p27 AUC3-15 (SIVmac32H [3]; [15]): 1.46 ± 0.52 µgxd/ml | IC50 (SIVmac32H [3]; Simian immunodeficiency virus, in Macaca mulatta, 360 h, NHP cervical explants, day 15): 52.6 ± 41.5 µM | potency against the mutant isolates (HIV-1/SIV/SHIV isolates): reduced | median (IQR) fold decreased IC50 values for matched isolates (HIV-1/SIV/SHIV isolates; colorectal tissue compared to female genital tract tissue, NHP and human explants): 1.8 (1.7–2.1) fold | p24 AUC3-15 (HIV-1YU.2; [14]): 1.83 ± 0.18 µgxd/ml | p24 AUC3-15 (HIV-1YU.2; [15]): 10.73 ± 5.56 µgxd/ml | IC50 (HIV-1YU.2; [16]): 28.9 ± 11.8 µM | p24 AUC3-15 (HIV-1YU.2 M184V; [14]): 0.52 ± 0.02 µgxd/ml | p24 AUC3-15 (HIV-1YU.2 M184V; [15]): 0.82 ± 0.05 µgxd/ml | IC50 (HIV-1YU.2 M184V; [16]): 37.9 ± 12.5 µM | p27 AUC3-15 (SIVmac32H K65RM184V [4]; [14]): 1.37 ± 0.30 µgxd/ml | p27 AUC3-15 (SIVmac32H K65RM184V [4]; [15]): 1.61 ± 0.29 µgxd/ml | IC50 (SIVmac32H K65RM184V [4]; [17]): 77.1 ± 31.5 µM | p24 AUC3-15 (HIV-1BaL [5]; [14]): 0.41 ± 0.17 µgxd/ml | p24 AUC3-15 (HIV-1BaL [5]; [15]): 2.57 ± 1.81 µgxd/ml | IC50 (HIV-1BaL [5]; [16]): 22.2 ± 1.39 µM | p24 AUC3-15 (HIV-1YU.2 K65RM184V; [14]): 1.01 ± 0.11 µgxd/ml | p24 AUC3-15 (HIV-1YU.2 K65RM184V; [15]): 1.88 ± 0.07 µgxd/ml | IC50 (HIV-1YU.2 K65RM184V; [16]): 36.4 ± 3.83 µM | p27 AUC3-15 (SIVmac32H [6]; [14]): 1.23 ± 0.14 µgxd/ml | p27 AUC3-15 (SIVmac32H [6]; [15]): 4.84 ± 1.77 µgxd/ml | IC50 (SIVmac32H [6]; [18]): 25.4 ± 5.35 µM | p27 AUC3-15 (SIVmac32H K65RM184V [7]; [14]): 1.38 ± 0.27 µgxd/ml | p27 AUC3-15 (SIVmac32H K65RM184V [7]; [15]): 1.70 ± 0.32 µgxd/ml | IC50 (SIVmac32H K65RM184V [7]; [18]): 47.9 ± 24.9 µM | p27 AUC3-15 (SIVmac32H [8]; [14]): 1.27 ± 0.24 µgxd/ml | p27 AUC3-15 (SIVmac32H [8]; [15]): 1.44 ± 0.28 µgxd/ml | IC50 (SIVmac32H [8]; [17]): 56.1 ± 62.9 µM | exposure (AUC3h-15d) fold change ([9]; NHP colorectal explants versus ecto-cervical): 2.5 fold | exposure (AUC3h-15d) fold change ([9]; NHP colorectal explants versus vaginal tissues): 4.4 fold | AUC3h–15d [9, 12]: 66.86 ng·days/mg | AUC3h–15d [9, 13]: 13.99 ng·days/mg | AUC3h–15d [9, 10]: 30.64 ng·days/mg | AUC3h–15d [9, 11]: 4.68 ng·days/mg | Cmax [9, 12]: 44200 ng/g | Cmax [9, 13]: 9190 ng/g | Cmax [9, 10]: 20200 ng/g | Cmax [9, 11]: 2980 ng/g
